# Counter-ions that a name gives are not always drawn.
# Biological target: c-fms (Homo sapiens, UniProt P07333)
# Test: autophosphorylation, fluorescence polarization competition immunoassay for c-fms inhibition
# Type: biochemical
# Conditions: 10 nM c-fms, 1 mM ATP, 5 mM MgCl2, 2% DMSO, 45 min at room temperature; averages of three independent measurements; read-out: c-fins IC50
# Protocol: The assay buffer used was 100 mM 4-(2-hydroxyethyl)piperazine 1-ethanesulfonic acid (HEPES), pH 7.5, 1 mM 1,4-dithio-DL-threitol (DTT), 0.01% (v/v) Tween-20. Compounds were diluted in assay buffer containing 4% dimethylsulfoxide (DMSO) just prior to the assay. […] The kinase reaction was initiated by adding 2 μL of 5 mM ATP (Sigma) in assay buffer. The final concentrations in the assay were 10 nM c-fms, 1 mM ATP, 5 mM MgCl2, 2% DMSO. Control reactions were ran in each plate: in positive and negative control wells, assay buffer (made 4% in DMSO) was substituted for the compound; in addition, positive control wells received 1.2 μL of 50 mM ethylenediaminetetraaceticacid (EDTA).
# The plates were incubated at room temperature for 45 min. At the end of the incubation, the reaction was quenched with 1.2 μL of 50 mM EDTA (EDTA was not added to the positive control wells at this point; see above). Following a 5-min incubation, each well received 10 μL of a 1:1:3 mixture of anti-phosphotyrosine antibody, 10X, PTK green tracer, 10X (vortexed), FP dilution buffer, respectively (all from PanVera, cat. # P2837). The plate was covered, incubated for 30 min at room temperature and the fluorescence polarization was read on the Analyst. […] The reported IC50 values are averages of three independent measurements.
# c-fms, sequence (P07333 20-972): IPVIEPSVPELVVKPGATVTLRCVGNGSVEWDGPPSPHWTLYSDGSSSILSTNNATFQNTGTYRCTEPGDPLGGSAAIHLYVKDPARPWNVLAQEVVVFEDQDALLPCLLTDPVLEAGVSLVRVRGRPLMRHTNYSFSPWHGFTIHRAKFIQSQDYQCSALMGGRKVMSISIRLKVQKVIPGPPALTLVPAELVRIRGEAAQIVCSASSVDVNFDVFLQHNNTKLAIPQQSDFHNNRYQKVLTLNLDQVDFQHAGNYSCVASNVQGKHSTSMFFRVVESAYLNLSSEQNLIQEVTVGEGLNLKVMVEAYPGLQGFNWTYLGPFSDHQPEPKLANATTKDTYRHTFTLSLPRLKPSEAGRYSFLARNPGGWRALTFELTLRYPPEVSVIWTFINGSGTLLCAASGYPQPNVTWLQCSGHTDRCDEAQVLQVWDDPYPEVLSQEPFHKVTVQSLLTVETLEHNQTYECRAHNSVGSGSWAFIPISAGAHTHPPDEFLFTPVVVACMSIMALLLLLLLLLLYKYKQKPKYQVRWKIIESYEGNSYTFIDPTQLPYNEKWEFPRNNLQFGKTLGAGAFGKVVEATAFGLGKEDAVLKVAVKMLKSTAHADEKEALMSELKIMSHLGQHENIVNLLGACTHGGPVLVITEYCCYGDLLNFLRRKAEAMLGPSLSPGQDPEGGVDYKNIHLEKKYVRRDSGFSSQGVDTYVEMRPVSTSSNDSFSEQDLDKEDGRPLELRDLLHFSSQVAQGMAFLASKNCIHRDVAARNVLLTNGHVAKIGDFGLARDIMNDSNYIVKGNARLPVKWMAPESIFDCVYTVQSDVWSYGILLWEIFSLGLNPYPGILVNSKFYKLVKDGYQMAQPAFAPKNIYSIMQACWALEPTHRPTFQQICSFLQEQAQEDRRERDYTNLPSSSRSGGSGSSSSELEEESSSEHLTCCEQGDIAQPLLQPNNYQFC
row,Compound,IC50
1,"Cc1cscc1-c1cc(N2CCN(C)CC2)ccc1NC(=O)c1ccc(C#N)o1 [Example 5, 5-Cyano-furan-2-carboxylic acid [4-(4-methyl-piperazin-1-yl)-2-(4-methyl-thiophen-3-yl)-phenyl]-amide]",950 nM
2,"Cc1ccccc1-c1cc(N2CCN(C)CC2)ccc1NC(=O)c1ccc(C#N)o1 [Example 9, 5-Cyano-furan-2-carboxylic acid [2 ′-methyl-5-(4-methyl-piperazin-1-yl)-biphenyl-2-yl]-amide]",630 nM
3,"CN1CCN(c2ccc(NC(=O)c3ccc(C#N)o3)c(-c3ccccc3F)c2)CC1 [Example 10, 5-Cyano-furan-2-carboxylic acid [2′-fluoro-5-(4-methyl-piperazin-1-yl)-biphenyl-2-yl]-amide]",900 nM
4,CN1CCN(c2ccc(NC(=O)c3ccc(C#N)o3)c(C3=CCOCC3)c2)CC1 [Example 12],60 nM
5,"CC1CC=C(c2cc(C3CCN(Cc4ccccn4)CC3)ccc2NC(=O)c2nc(C#N)c[nH]2)CC1 (stereo not shown) [Example 22, 4-Cyano-1H-imidazole-2-carboxylic acid [2-(4-methyl-cyclohex-1-enyl)-4-(1-pyridin-2-ylmethyl-piperidin-4-yl)-phenyl]-amide trifluoroacetic acid salt]",1.4 nM
6,"N#Cc1c[nH]c(C(=O)Nc2ccc(C3CCNCC3)cc2C2=CCS(=O)(=O)CC2)n1 [Example 36, 4-Cyano-1H-imidazole-2-carboxylic acid [2-(1,1-dioxo-1,2,3,6-tetrahydro-1λ^6-thiopyran-4-yl)-4-piperidin-4-yl-phenyl]-amide trifluoroacetic acid salt]",60 nM
7,"CC(=O)N1CCC(c2ccc(NC(=O)c3nc(C#N)c[nH]3)c(C3=CCS(=O)(=O)CC3)c2)CC1 [Example 37, 4-Cyano-1H-imidazole-2-carboxylic acid [4-(1-acetyl-piperidin-4-yl)-2-(1,1-dioxo-1,2,3,6-tetrahydro-1λ^6-thiopyran-4-yl)-phenyl]-amide]",60 nM
8,"CN(C)CC(=O)N1CCC(c2ccc(NC(=O)c3nc(C#N)c[nH]3)c(C3=CCC(C)(C)CC3)n2)CC1 [Example 55, 4-Cyano-1H-imidazole-2-carboxylic acid [1′-(2-dimethylamino-acetyl)-6-(4,4-dimethyl-cyclohex-1-enyl)-1′,2′,3′,4′,5′,6′-hexahydro-[2,4′]bipyridinyl-5-yl]-amide trifluoroacetic acid salt]",0.7 nM
9,"CC1(C)CC=C(c2nc(C3CCN(CCS(C)(=O)=O)CC3)ccc2NC(=O)c2nc(C#N)c[nH]2)CC1 [Example 56, 4-Cyano-1H-imidazole-2-carboxylic acid [6-(4,4-dimethyl-cyclohex-1-enyl)-1′-(2-methanesulfonyl-ethyl)-1′,2′,3′,4′,5′,6′-hexhydro-[2,4′]bipyridinyl-5-yl]-amide trifluoroacetic acid salt]",1 nM
10,"CS(=O)(=O)CCN1CCC(c2ccc(NC(=O)c3nc(C#N)c[nH]3)c(C3=CCCCC3)n2)CC1 [Example 58, 5-Cyano-1H-imidazole-2-carboxylic acid [6-cyclohex-1-enyl-1′-(2-methanesulfonyl-ethyl)-1′,2′,3′,4′,5′,6′-hexahydro-[2,4′]bipyridinyl-5-yl]-amide]",7 nM

# The next lines start with the values.
row,IC50,Compound
1,12 nM,"N#Cc1c[nH]c(C(=O)Nc2ccc(C3CCNCC3)cc2C2=CCCCC2)c1 [Example 13, 4-Cyano-1H-pyrrole-2-carboxylic acid (2-cyclohex-1-enyl-4-piperidin-4-yl-phenyl)-amide trifluoroacetic acid salt]"
2,28 nM,"CC(=O)N1CCC(c2ccc(NC(=O)c3cc(C#N)c[nH]3)c(C3=CCCCC3)c2)CC1 [Example 15, 4-Cyano-1H-pyrrole-2-carboxylic acid [4-(1-acetyl-piperidin-4-yl)-2-cyclohex-1-enyl-phenyl]-amide]"
3,6.6 nM,"Cn1ccnc1CN1CCC(c2ccc(NC(=O)c3nc(C#N)c[nH]3)c(C3=CCCC3)c2)CC1 [Example 23, 4-Cyano-1H-imidazole-2-carboxylic acid {2-cyclopent-1-enyl-4-[1-(1-methyl-1H-imidazol-2-ylmethyl)-piperidin-4-yl]-phenyl}-amide trifluoroacetic acid salt]"
4,2.9 nM,"N#Cc1c[nH]c(C(=O)Nc2ccc(C3CCS(=O)(=O)CC3)cc2C2=CCCCC2)n1 [Example 35, 4-Cyano-1H-imidazole-2-carboxylic acid [2-cyclohex-1-enyl-4-(1,1-dioxo-hexahydro-1λ^6-thiopyran-4-yl)-phenyl]-amide]"
5,1.4 nM,"CNCC(=O)N1CCC(c2ccc(NC(=O)c3nc(C#N)c[nH]3)c(C3=CCCCC3)c2)CC1 [Example 38b, 4-Cyano-1H-imidazole-2-carboxylic acid {2-cyclohex-1-enyl-4-[1-(2-methylamino-acetyl)-piperidin-4-yl]-phenyl}-amide]"
6,60 nM,"O=C(Nc1ccc(C2CCNCC2)cc1C1=CCCCC1)c1nnc[nH]1 [Example 49, 4H-[1,2,4]-triazole-3-carboxylic acid (2-cyclohex-1-enyl-4-piperidin-4-yl-phenyl)-amide bis trifluoroacetic acid salt]"
7,60 nM,"O=C(Nc1ccc(C2CCNCC2)cc1C1=CCCCC1)c1nnc(Cl)[nH]1 [Example 50, 5-Chloro-4H-[1,2,4]-triazole-3-carboxylic acid (2-cyclohex-1-enyl-4-piperidin-4-yl-phenyl)-amide trifluoroacetic acid salt]"
8,0.2 nM,"C[C@@H]1CC(c2ccc(NC(=O)c3ncc(C#N)[nH]3)c(C3=CCCCC3)c2)C[C@H](C)N1 (stereo partly drawn) [Example 51a, 5-Cyano-1H-imidazole-2-carboxylic acid [2-cyclohex-1-enyl-4-(cis-2,6-dimethyl-piperidin-4-yl)-phenyl]-amide bis trifluoroacetic acid salt]"
9,0.4 nM,"C[C@H]1CC(c2ccc(NC(=O)c3ncc(C#N)[nH]3)c(C3=CCCCC3)c2)C[C@H](C)N1 (stereo partly drawn) [Example 51b, 5-cyano-1H-imidazole-2-carboxylic acid [2-cyclohex-1-enyl-4-(trans-2,6-dimethyl-piperidin-4-yl)-phenyl]-amide bis trifluoroacetic acid salt]"
10,5.3 nM,"CON1CCC(c2ccc(NC(=O)c3ncc(C#N)[nH]3)c(C3=CCCCC3)c2)CC1 [Example 53, 5-Cyano-1H-imidazole-2-carboxylic acid [2-cyclohex-1-enyl-4-(1-methoxy-piperidin-4-yl)-phenyl]-amide trifluoroacetic acid salt]"
11,0.8 nM,"CC1(C)CC=C(c2nc(C3CCNCC3)ccc2NC(=O)c2nc(C#N)c[nH]2)CC1 [Example 54, 4-Cyano-1H-imidazole-2-carboxylic acid [6-(4,4-dimethyl-cyclohex-1-enyl)-1′,2′,3′,4′,5′,6′-hexahydro-[2,4′]bipyridinyl-5-yl]-amide trifluoroacetic acid salt]"

# Same assay, conditions: read-out: c-fins IC50
row,IC50,Compound
1,470 nM,"Cc1ccsc1-c1cc(N2CCN(C)CC2)ccc1NC(=O)c1ccc(C#N)o1 [Example 4, 5-Cyano-furan-2-carboxylic acid [4-(4-methyl-piperazin-1-yl)-2-(3-methyl-thiophen-2-yl)-phenyl]-amide]"

# Reference: patent US7645755B2, “Inhibitors of c-fms kinase” (Janssen Pharmaceutical N.V., priority 2004, dated 2010)
